Source: ChEMBL document CHEMBL4842364 (J Med Chem, 2021)
The source made the active and inactive calls. The rule behind the calls is not given here.

Tests used:
NCI-H23 = assay: Antiproliferative activity against human NCI-H23 cells assessed as reduction in cell viability after 4 days by CellTiter-Glo assay
[1] = Octanol/buffer distribution coefficient, logD of the compound at pH 7.4; type: physicochemical
[2] = Intrinsic clearance in human microsomes; type: ADME, Microsome
[3] = Intrinsic clearance in mouse microsomes; type: ADME, Microsome
Wee1-like protein kinase = Wee1-like protein kinase (Homo sapiens, UniProt P30291)
Chain of Wee1-like protein kinase (P30291 whole entry): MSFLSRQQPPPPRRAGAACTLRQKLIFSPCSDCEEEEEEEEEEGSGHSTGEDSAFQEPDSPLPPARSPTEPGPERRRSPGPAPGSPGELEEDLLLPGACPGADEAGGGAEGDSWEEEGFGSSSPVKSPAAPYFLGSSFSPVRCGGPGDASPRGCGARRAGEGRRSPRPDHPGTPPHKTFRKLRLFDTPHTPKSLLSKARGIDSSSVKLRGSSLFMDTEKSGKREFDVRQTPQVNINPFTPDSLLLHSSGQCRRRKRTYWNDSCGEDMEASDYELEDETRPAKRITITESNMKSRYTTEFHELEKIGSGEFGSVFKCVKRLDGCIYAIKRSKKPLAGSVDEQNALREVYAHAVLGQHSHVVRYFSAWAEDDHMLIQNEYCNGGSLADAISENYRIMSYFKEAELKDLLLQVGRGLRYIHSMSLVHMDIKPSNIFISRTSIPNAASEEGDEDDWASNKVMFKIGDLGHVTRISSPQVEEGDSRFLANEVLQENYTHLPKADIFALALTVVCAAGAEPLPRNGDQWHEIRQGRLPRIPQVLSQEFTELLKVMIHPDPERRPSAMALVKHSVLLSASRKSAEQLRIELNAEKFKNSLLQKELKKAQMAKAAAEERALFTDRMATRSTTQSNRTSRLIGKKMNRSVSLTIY
Description: Displacement of Alexa Fluor labelled kinase tracer178 from WEE1 (unknown origin) incubated for 60 mins by FRET assay

[4] = AUC(0 to 24 hrs) in mouse at 60 mg/kg, po; type: ADME, organism-based; set-up: time < 24 hr, route oral, dose 60 mg/kg; conditions: in vivo
[5] = AUC(0 to 24 hrs) in rat at 60 mg/kg, po; type: ADME, organism-based; set-up: time < 24 hr, route oral, dose 60 mg/kg; conditions: in vivo
[6] = AUC(0 to 24 hrs) in mouse at 10 mg/kg, po; type: ADME, organism-based; set-up: time < 24 hr, route oral, dose 10 mg/kg; conditions: in vivo
A-427 [7] = assay: Antitumor activity against human A-427 cells xenografted in SCID mouse assessed as reduction in tumor growth at 80 mg/kg, po administered once daily for 28 days and measured twice per weeks; type: functional, organism-based; conditions: time 28.0 day
[8] = AUC in mouse plasma at 80 mg/kg, po administered once daily for 28 days; type: ADME, organism-based; set-up: time 28 day, dose 80 mg/kg
A-427 [9] = assay: Antiproliferative activity against human A-427 cells assessed as reduction in cell viability after 3 days by CellTiter-Glo assay; type: functional, cell-based; conditions: A-427, 72 h

Row | SMILES | IC50 (NCI-H23; Homo sapiens, NCI-H23, 96 h) [nM] | logD [1] | CLint scaled [2] [mL/min/kg] | CLint scaled [3] [mL/min/kg] | IC50 (Wee1-like protein kinase) [nM] | IC50 (NCI-H23; nci-h23) [nM] | AUC(0-t) at 24 h [4] [µM·h] | AUC(0-t) at 24 h [5] [µM·h] | AUC(0-t) at 24 h [6] [µM·h] | Activity (A-427 [7]) | AUC at 672 h [8] [µM·h] | IC50 (A-427 [9]) [nM]
1 | C=CCn1c(=O)c2cnc(Nc3cccc(N4CCN(C)CC4)c3)nc2n1-c1ccc2c(n1)[C@@](O)(CC)CC2 | 277 | 2.6 | 135 | 1110 | 3.2 |  |  |  |  |  |  | 
2 | C=CCn1c(=O)c2cnc(Nc3ccc(N4CCN(C)CC4)cc3)nc2n1-c1ccc2c(n1)C(O)CC2 (stereo in doubt; 9) |  |  |  |  | 4.3 | 2520 |  |  |  |  |  | 
3 | C=CCn1c(=O)c2cnc(Nc3ccc4c(c3)CCN(C)C4)nc2n1-c1cccc(C(C)(C)O)n1 | 81 | 2.5 |  | 186 | 2.6 |  | 9.6 |  |  |  |  | 
4 | C=CCn1c(=O)c2cnc(Nc3ccc4c(c3)CN(CCO)CC4)nc2n1-c1cccc(C(C)(C)O)n1 | 274 | 2.2 |  | 307 | 2.5 |  | 1.8 |  |  |  |  | 
5 | C=CCn1c(=O)c2cnc(Nc3ccc(N4CCN(C)CC4)c(C)c3)nc2n1-c1ccc2c(n1)[C@@](O)(CC)CC2 | 58 | 3 | 102 | 191 | 3.1 |  | 59 | 43 |  |  |  | 
6 | C=CCn1c(=O)c2cnc(Nc3ccc(N4CCN(C)CC4)cc3)nc2n1-c1ccc2c(n1)[C@@](C)(O)CC2 | 1140 | 2 | 18 | < 8.6 | 5.2 |  | 21 | 14 |  |  |  | 
7 | C=CCn1c(=O)c2cnc(Nc3ccc(N4CCN(C)CC4)cc3)nc2n1-c1ccc2c(n1)[C@@](N)(CC)CC2 | 26 | 1.4 | 26 | 152 | 3.2 |  | 3.9 |  |  |  |  | 
8 | C=CCn1c(=O)c2cnc(Nc3ccc(N4CCN(C)CC4)cc3)nc2n1-c1ccc2c(n1)C(C)(O)CO2 (single isomer, unassigned) | 1420 | 1.4 | 17 | < 38 | 4.6 |  |  |  |  |  |  | 
9 | CC[C@@]1(O)CCc2ccc(-n3c4nc(Nc5ccc(N6CCN(C)CC6)cc5)ncc4c(=O)n3CC3CC3)nc21 | 3360 |  |  |  | 64 |  |  |  |  |  |  | 
10 | C=CCn1c(=O)c2cnc(Nc3ccc(N4CCN(C)CC4)cc3)nc2n1-c1ccc2c(c1)C(C)(O)CC2 (single isomer, unassigned) | 186 | 2.5 | 26 | 206 | 3.3 |  | 19 | 17 |  |  |  | 
11 | C=CCn1c(=O)c2cnc(Nc3ccc(N4CCN(C)CC4)cc3)nc2n1-c1ccc2c(n1)C(O)(C(F)(F)F)CC2 (single isomer, unassigned) | 185 | 2.8 | 71 | 126 | 3.6 |  | 33 | 37 |  |  |  | 
12 | C=CCn1c(=O)c2cnc(Nc3ccc(N4CCNCC4)cc3)nc2n1-c1ccc2c(n1)[C@@](O)(CC)CC2 | 212 | 1 | 26 | 52 | 3.2 |  | 1 |  |  |  |  | 
13 | C=CCn1c(=O)c2cnc(Nc3ccc(N4CCN(C)CC4)cc3)nc2n1-c1ccc2c(n1)C(F)(F)CC2 | 1530 | 2.8 | 48 | 293 | 6.4 |  |  |  |  |  |  | 
14 | C=CCn1c(=O)c2cnc(Nc3ccc(N4CCN(C)CC4)cc3)nc2n1-c1ccc2c(n1)C(O)(C1CC1)CC2 (single isomer, unassigned) | 186 | 2.4 | 39 | 78 | 2.9 |  |  |  |  |  |  | 
15 | C=CCn1c(=O)c2cnc(Nc3ccc4c(c3)CNCC43CC3)nc2n1-c1ccc2c(n1)[C@@](O)(C(F)(F)F)CC2 | 153 | 2.1 | 97 | 555 | 2.5 |  |  |  |  |  |  | 
16 | C=CCn1c(=O)c2cnc(Nc3ccc4c(ccn4C4CCN(C)CC4)c3)nc2n1-c1ccc2c(n1)[C@@](O)(CC)CC2 | 116 | 2.7 | 267 | 124 | 2.6 |  |  |  |  |  |  | 
17 | C=CCn1c(=O)c2cnc(Nc3ccc(N4CCN(C)CC4)cc3)nc2n1-c1ccc2c(n1)C(O)CC2 (stereo in doubt; 8) | 2300 | 1.7 | 12 | < 38 | 5.7 |  |  | 0.3 |  |  |  | 
18 | CC[C@@]1(O)CCc2ccc(-n3c4nc(Nc5ccc(N6CCN(C)CC6)cc5)ncc4c(=O)n3CC=C(F)F)nc21 | 5780 |  |  |  | 22 |  |  |  |  |  |  | 
19 | C=CCn1c(=O)c2cnc(Nc3ccc4c(c3)CN(C)CC43CC3)nc2n1-c1cccc(C(C)(C)O)n1 |  | 3.1 |  | 1060 |  |  |  |  | 0.7 |  |  | 
20 | C=CCn1c(=O)c2cnc(Nc3ccc4c(c3)CNCC43CC3)nc2n1-c1cccc(C(C)(C)O)n1 | 54 | 1.9 |  | 1400 | 2.4 |  | 6.4 |  |  |  |  | 
21 | C=CCn1c(=O)c2cnc(Nc3cc(N4CCN(C)CC4)c4ccn(C)c4c3)nc2n1-c1ccc2c(n1)[C@@](O)(CC)CC2 | 109 | 2.7 | 41 | 395 | 12 |  | 14 |  |  |  |  | 
22 | C=CCn1c(=O)c2cnc(Nc3ccc(N4CCN(C)CC4)c(C)c3)nc2n1-c1ccc2c(n1)[C@](C)(O)CC2 | 130 | 2.6 | 80 | 121 | 2.3 |  | 52 | 40 |  |  |  | 
23 | C=CCn1c(=O)c2cnc(Nc3ccc(N4CCN(C)CC4)cc3)nc2n1-c1ccc2c(n1)[C@@](O)(CC)CCC2 | 56 | 2.9 | 71 | 126 | 3.7 |  | 35 | 24 |  |  |  | 
24 | C=CCn1c(=O)c2cnc(Nc3ccc4c(c3)CNCC4)nc2n1-c1cccc(C(C)(C)O)n1 | 105 | 1.3 |  | 170 |  |  | 2.9 |  | 0.2 |  |  | 
25 | C=CC(F)(F)n1c(=O)c2cnc(Nc3ccc(N4CCN(C)CC4)cc3)nc2n1-c1ccc2c(n1)[C@@](O)(CC)CC2 | 4720 |  |  |  | > 100 |  |  |  |  |  |  | 
26 | C=CCn1c(=O)c2cnc(Nc3ccc(N4CCN(C)CC4)cc3)nc2n1-c1ccc2c(n1)[C@@](O)(C(F)F)CC2 | 270 | 2.3 | 47 | 108 | 2.6 |  |  |  |  |  |  | 
27 | C=CCn1c(=O)c2cnc(Nc3ccc4c(c3)CN(C)CC4)nc2n1-c1cccc(C(C)(C)O)n1 | 64 | 2.4 |  | 603 | 2.6 |  |  |  | 1 |  |  | 
28 | C=CCn1c(=O)c2cnc(Nc3ccc(N4CCN(C)CC4)cc3)nc2n1-c1ccc2c(n1)[C@](C)(O)CCC2 | 177 | 2.6 | 18 | 66 | 3.7 |  | 54 | 9.4 |  | Active | 83 | 155
